EP0496332A1, “Alpha-aminoquinolinoyl-[3]-penicillines, process for their preparation and their use as antibacterial agents” (ARZNEIMITTELWERK DRESDEN GmbH, priority 1991, dated 1992)
≈ marks a conversion by molar mass, not a printed value.

How the values were obtained:
Assay in all cases: In-vitro test, inhibitory concentration by dilution series
Format in all cases: cell-based
Bacillus subtilis SG 119 = settings: SG119; I = Bacillus subtilis SG 119; step = concentration with no visible growth; read-out: Hemmkonzentration nach Verdünnung (Verdünnungsreihe) (converted)
From the text: (§1) Die antibiotische Wirksamkeit erfindungsgemäßer Verbindungen wurde in der üblichen Weise durch Ermittlung der Hemmkonzentrationen nach Verdünnung ermittelt.
(§2) Die erhaltenen Ergebnisse sind in der nachstehenden Tabelle zusammengefaßt.

Citrobacter freudii = settings: XIV = Citrobacter freudii, Laborstämme; step = concentration with no visible growth; read-out: Hemmkonzentration nach Verdünnung (Verdünnungsreihe) (converted)
From the text: as §1, §2

Enterobacter cloacae = settings: XIII = Enterobacter cloacae, Laborstämme; step = concentration with no visible growth; read-out: Hemmkonzentration nach Verdünnung (Verdünnungsreihe) (converted)
From the text: as §1, §2

Enterokokken = settings: XI = Enterokokken, Laborstämme; step = concentration with no visible growth; read-out: Hemmkonzentration nach Verdünnung (Verdünnungsreihe) (converted)
From the text: as §1, §2

Escherichia coli = settings: XII = Escherichia coli, Laborstämme; step = concentration with no visible growth; read-out: Hemmkonzentration nach Verdünnung (Verdünnungsreihe) (converted)
From the text: as §1, §2

[1] = system: Klebsiella pneumoniae SG 117; settings: SG117; VII = Klebsiella pneumoniae SG 117; step = concentration with no visible growth; read-out: Hemmkonzentration nach Verdünnung (Verdünnungsreihe) (converted)
From the text: as §1, §2

Proteus vulgaris OX 19 = settings: OX19; III = Proteus vulgaris OX 19; step = concentration with no visible growth; read-out: Hemmkonzentration nach Verdünnung (Verdünnungsreihe) (converted)
From the text: as §1, §2

[2] = system: Pseudomonas aeruginosa NCTC 10701; settings: NCTC10701; IV = Pseudomonas aeruginosa NCTC 10701; step = concentration with no visible growth; read-out: Hemmkonzentration nach Verdünnung (Verdünnungsreihe) (converted)
From the text: as §1, §2

[3] = system: Pseudomonas aeruginosa SG 137; settings: SG137; V = Pseudomonas aeruginosa SG 137; step = concentration with no visible growth; read-out: Hemmkonzentration nach Verdünnung (Verdünnungsreihe) (converted)
From the text: as §1, §2

[4] = system: Salmonella gallinarium ATCC 9184; settings: ATCC9184; VI = Salmonella gallinarium ATCC 9184; step = concentration with no visible growth; read-out: Hemmkonzentration nach Verdünnung (Verdünnungsreihe) (converted)
From the text: as §1, §2

[5] = system: Serratia marcescens SG 621; settings: SG621; VIII = Serratia marcescens SG 621; step = concentration with no visible growth; read-out: Hemmkonzentration nach Verdünnung (Verdünnungsreihe) (converted)
From the text: as §1, §2

[6] = system: Staphylococcus aureus SG 511; settings: SG511; II = Staphylococcus aureus SG 511; step = concentration with no visible growth; read-out: Hemmkonzentration nach Verdünnung (Verdünnungsreihe) (converted)
From the text: as §1, §2

Staphylococcus aureus = settings: IX = Staphylococcus aureus, Laborstämme; step = concentration with no visible growth; read-out: Hemmkonzentration nach Verdünnung (Verdünnungsreihe) (converted)
From the text: as §1, §2

[7] = system: Staphylococcus epidermidis; settings: X = Staphylococcus epidermidis, Laborstämme; step = concentration with no visible growth; read-out: Hemmkonzentration nach Verdünnung (Verdünnungsreihe) (converted)
From the text: as §1, §2

Row | Structure (SMILES) | MIC (Bacillus subtilis SG 119) [µM] | MIC (Citrobacter freudii) [µM] | MIC (Enterobacter cloacae) [µM] | MIC (Enterokokken) [µM] | MIC (Escherichia coli) [µM] | MIC [1] [µM] | MIC (Proteus vulgaris OX 19) [µM] | MIC [2] [µM] | MIC [3] [µM] | MIC [4] [µM] | MIC [5] [µM] | MIC [6] [µM] | MIC (Staphylococcus aureus) [µM] | MIC [7] [µM]
1 | CCOCc1cc2ncc(C(=O)N[C@@H](C(=O)N[C@@H]3C(=O)N4[C@@H]3SC(C)(C)[C@@H]4C(=O)O)c3ccccc3)c(OC(=O)OCC)c2cc1CC [Beisp. 6, 6-[D-(-)-α-([4'-Ethoxycarbonyloxy-6'-ethyl-7'-ethoxy-methylen-chinolinoyl-3']-carboxamido)-α-phenylacetamido]-penicillansäure-Natriumsalz] | 1.56 (≈ 1.06 µg/mL) | 3.12 (≈ 2.12 µg/mL) | 3.12 (≈ 2.12 µg/mL) | 12.5 (≈ 8.48 µg/mL) | 1.56 (≈ 1.06 µg/mL) | 0.78 (≈ 0.529 µg/mL) | 0.39 (≈ 0.265 µg/mL) | 0.78 (≈ 0.529 µg/mL) | 6.25 (≈ 4.24 µg/mL) | 1.56 (≈ 1.06 µg/mL) | 1.56 (≈ 1.06 µg/mL) | 1.56 (≈ 1.06 µg/mL) | 12.5 (≈ 8.48 µg/mL) | 6.25 (≈ 4.24 µg/mL)
2 | CCCCOCc1cc2ncc(C(=O)N[C@@H](C(=O)N[C@@H]3C(=O)N4[C@@H]3SC(C)(C)[C@@H]4C(=O)O)c3ccccc3)c(OC(=O)OCC)c2cc1CC [Beisp. 4, 6-[D-(-)-α-([4'-Ethoxycarbonyloxy-6'-ethyl-7'-n-butoxymethylen-chinolinoyl-3']-carboxamido)-α-phenylacetamido]-penicillansäure-Natriumsalz] | 0.39 (≈ 0.276 µg/mL) | 6.25 (≈ 4.42 µg/mL) | 3.12 (≈ 2.21 µg/mL) | 6.25 (≈ 4.42 µg/mL) | 1.56 (≈ 1.1 µg/mL) | 1.56 (≈ 1.1 µg/mL) | 0.78 (≈ 0.551 µg/mL) | 1.56 (≈ 1.1 µg/mL) | 3.12 (≈ 2.21 µg/mL) | 1.56 (≈ 1.1 µg/mL) | 1.56 (≈ 1.1 µg/mL) | 0.78 (≈ 0.551 µg/mL) | 12.5 (≈ 8.84 µg/mL) | 3.12 (≈ 2.21 µg/mL)
3 | COc1ccc2ncc(C(=O)N[C@@H](C(=O)N[C@@H]3C(=O)N4[C@@H]3SC(C)(C)[C@@H]4C(=O)O)c3ccccc3)c(O)c2c1 [Beisp. 9, 6-[D-(-)-α-([4'-Hydroxy-6'-methoxy-chinolinoyl-3']-carboxamido)-α-phenylacetamido]-penicillansäure-Natriumsalz] | 1.56 (≈ 0.859 µg/mL) | 25 (≈ 13.8 µg/mL) | 25 (≈ 13.8 µg/mL) | 25 (≈ 13.8 µg/mL) | 3.12 (≈ 1.72 µg/mL) | 1.56 (≈ 0.859 µg/mL) | 0.39 (≈ 0.215 µg/mL) | 0.39 (≈ 0.215 µg/mL) | 25 (≈ 13.8 µg/mL) | 1.56 (≈ 0.859 µg/mL) | 1.56 (≈ 0.859 µg/mL) | 1.56 (≈ 0.859 µg/mL) | 12.5 (≈ 6.88 µg/mL) | 6.25 (≈ 3.44 µg/mL)
4 | CCc1cc2c(OC(=O)OCC(C)C)c(C(=O)N[C@@H](C(=O)N[C@@H]3C(=O)N4[C@@H]3SC(C)(C)[C@@H]4C(=O)O)c3ccccc3)cnc2cc1COc1ccc(Cl)c(C)c1 [Beisp. 17, 6-[D-(-)-α-([4'-Isobutoxycarbonyloxy-6'-ethyl-7'-(3''-methyl-4''-chlor)-phenoxymethylen-chinolinoyl-3']-carboxamido)-α-phenylacetamido]-penicillansäure-Natriumsalz] | 1.56 (≈ 1.25 µg/mL) | 6.25 (≈ 5.02 µg/mL) | 6.25 (≈ 5.02 µg/mL) | 25 (≈ 20.1 µg/mL) | 1.56 (≈ 1.25 µg/mL) | 0.39 (≈ 0.313 µg/mL) | 0.78 (≈ 0.627 µg/mL) | 6.25 (≈ 5.02 µg/mL) | 6.25 (≈ 5.02 µg/mL) | 3.12 (≈ 2.51 µg/mL) | 1.56 (≈ 1.25 µg/mL) | 1.56 (≈ 1.25 µg/mL) | 25 (≈ 20.1 µg/mL) | 6.25 (≈ 5.02 µg/mL)
5 | CCc1cc2c(OC(=O)OCC(C)C)c(C(=O)N[C@@H](C(=O)N[C@@H]3C(=O)N4[C@@H]3SC(C)(C)[C@@H]4C(=O)O)c3ccccc3)cnc2cc1CN1CCOCC1 [Beisp. 14, 6-[D-(-)-α-([4'-Isobutoxycarbonyloxy-6'-ethyl-7'-morpholinomethylen-chinolinoyl-3']-carboxamido)-α-phenylacetamido]-penicillansäure-Natriumsalz] | 6.25 (≈ 4.67 µg/mL) | 3.12 (≈ 2.33 µg/mL) | 3.12 (≈ 2.33 µg/mL) | 6.25 (≈ 4.67 µg/mL) | 0.78 (≈ 0.583 µg/mL) | 0.78 (≈ 0.583 µg/mL) | 0.2 (≈ 0.15 µg/mL) | 0.78 (≈ 0.583 µg/mL) | 6.25 (≈ 4.67 µg/mL) | 1.56 (≈ 1.17 µg/mL) | 0.78 (≈ 0.583 µg/mL) | 0.78 (≈ 0.583 µg/mL) | 3.12 (≈ 2.33 µg/mL) | 3.12 (≈ 2.33 µg/mL)
6 | CC(C)COC(=O)Oc1c(C(=O)N[C@@H](C(=O)N[C@@H]2C(=O)N3[C@@H]2SC(C)(C)[C@@H]3C(=O)O)c2ccccc2)cnc2ccc(C(C)C)cc12 [Beisp. 11, 6-[D-(-)-α-([4'-Isobutoxycarbonyloxy-6'-isopropyl-chinolinoyl-3']-carboxamido)-α-phenylacetamido]-penicillansäure-Natriumsalz] | 3.12 (≈ 2.07 µg/mL) | 12.5 (≈ 8.28 µg/mL) | 12.5 (≈ 8.28 µg/mL) | 12.5 (≈ 8.28 µg/mL) | 3.12 (≈ 2.07 µg/mL) | 3.12 (≈ 2.07 µg/mL) | 0.78 (≈ 0.517 µg/mL) | 1.56 (≈ 1.03 µg/mL) | 12.5 (≈ 8.28 µg/mL) | 3.12 (≈ 2.07 µg/mL) | 3.12 (≈ 2.07 µg/mL) | 3.12 (≈ 2.07 µg/mL) | 25 (≈ 16.6 µg/mL) | 12.5 (≈ 8.28 µg/mL)
7 | COc1cc2ncc(C(=O)N[C@@H](C(=O)N[C@@H]3C(=O)N4[C@@H]3SC(C)(C)[C@@H]4C(=O)O)c3ccccc3)c(OC(=O)OCC(C)C)c2cc1OC [Beisp. 20, 6-[D-(-)-α-([4'-Isobutoxycarbonyloxy-6',7'-dimethoxychinolinoyl-3']-carboxamido)-α-phenylacetamido]-penicillansäure-Natriumsalz] | 1.56 (≈ 1.06 µg/mL) | 12.5 (≈ 8.51 µg/mL) | 12.5 (≈ 8.51 µg/mL) | 12.5 (≈ 8.51 µg/mL) | 3.12 (≈ 2.12 µg/mL) | 1.56 (≈ 1.06 µg/mL) | 0.39 (≈ 0.265 µg/mL) | 0.39 (≈ 0.265 µg/mL) | 12.5 (≈ 8.51 µg/mL) | 3.12 (≈ 2.12 µg/mL) | 6.25 (≈ 4.25 µg/mL) | 1.56 (≈ 1.06 µg/mL) | 25 (≈ 17 µg/mL) | 6.25 (≈ 4.25 µg/mL)
